Experimental findings from patent publication US20250145573A1, “COMPOSITION FOR PREVENTING, ALLEVIATING OR TREATING CANCER” (CKP Therapeutics, Inc., priority 2023, published 2025) are described below.

The test system of experiment [1] is YUMC-S-P1, YUMC-P1-main, YUMC-P2-main cells. Kind of experiment: Cell viability assay (MTT), anti-cancer drug-sensitive and main mass PTC cells. Format: cell-based, human. How it is done:
(§1) Cell viability was measured using the MTT (3-(4,5-Dimethylthiazol-2-yl)-2,5-Diphenyltetrazolium Bromide) assay, cells were seeded in 96-well plates at 7×10^3 cells per well and incubated overnight to achieve 80% confluency. The detailed protocol can be found in our previous article. Data were expressed as a percentage of the signal observed in vehicle-treated cells and are shown as the means±SEM of triplicate experiments.
(§2) To evaluate to the anti-cancer efficacy of CKP1 and 2, combinatorial strategies with sorafenib or lenvatinib, we carried out cell viability assays for anti-cancer drug-sensitive (YUMC-S-P1) and main mass or lymph node metastasis PTC (YUMC-P1-main or YUMC-P2-main or YUMC-P1-meta or YUMC-P2-meta) cells treated with sorafenib or levatinib each agent treated alone or with CKP1 and CKP2.

The test system of experiment [2] is metastatic PTC (YUMC-P1-meta or YUMC-P2-meta) cells. In words: Cell viability assay (MTT), metastatic PTC cells. Format: cell-based, human. The procedure: as §1, §2
For experiment [3], the system named is YUMC-S-P1 cells xenograft. In words: Human PTC cell xenograft, anti cancer drug-sensitive PTC cells. Format: in vivo, mice. The procedure: (§3) All experiments were approved by the Animal Experiment Committee of Yonsei University. YUMC-S-P1, YUMC-P1 and -P2-main or meta patient-derived PTC cells (4.4×10^6 cells/mouse) were cultured in vitro and then injected subcutaneously into the upper left flank region of female NOD/Shi-scid, IL-2Rγ KOJic (NOG) mice. After 15 days, tumor-bearing mice were grouped randomly (n=10 per group) and treated SERCA inhibitors, thapsigargin (25 mg/kg), candidate 33 (12 mg/kg) and 36 (12 mg/kg, p.o.) with 80 mg/kg sorafenib (p.o.) either alone or combination. Tumor size was measured every three day using calipers. Tumor volume was estimated using the following formula: L×S2/2 (L, longest diameter; S, shortest diameter). Animals were maintained under specific pathogen-free conditions. All experiments were approved by the Animal Experiment Committee of Yonsei University.
(§4) We developed mouse xenograft models using anti cancer drug-sensitive (YUMC-S-P1) and metastatic PTC (YUMC-P1 and -P2-meta) cells and evaluated the anticancer effect of monotherapy with sorafenib, lenvatinib or with SERCA inhibitors (thapsigargin, CKP1 and 2) as well as that of the combination therapy between sorafenib or lenvatinib and a SERCA inhibitor. […] No significant changes in resected tumor weight were found between any of the treatment groups (FIG. 5a to 5e).

The test system of experiment [4] is metastatic PTC cells (YUMC-P1 or -P2-meta) xenograft. In words: Human PTC cell xenograft, metastatic PTC cells. Format: in vivo, mice. The conditions noted are these: for tumor shrinkage: YUMC-P1 or -P2-meta xenograft; for tumor shrinkage (summary statement): xenograft tumor model developed using patient-derived antineoplastic-resistant cells. The procedure:
as §3, §4

The mark [5] stands for this setting: sorafenib or lenvatinib without CKP1 and CKP2, dose-dependent, YUMC-S-P1, YUMC-P1-main, YUMC-P2-main.
The mark [6] stands for this setting: sorafenib or lenvatinib treatment alone, YUMC-P1-meta or YUMC-P2-meta.
[7] abbreviates: sorafenib or lenvatinib without SERCA inhibitors.
Where [8] appears, read: SERCA inhibitor alone treatment, whole PTC cells.
Where [9] appears, read: in combination with sorafenib or lenvatinib, dose-dependent, YUMC-S-P1, YUMC-P1-main, YUMC-P2-main.
[10] abbreviates: combinatorial with sorafenib or lenvatinib treatment, dose-dependent, YUMC-P1-meta or YUMC-P2-meta.
Where [11] appears, read: SERCA inhibitor with sorafenib or lenvatinib.
The mark [12] stands for this setting: combination of sorafenib or lenvatinib with SERCA inhibitor.

In the case of `COc1cc2nccc(Oc3ccc(NC(=O)NC4CC4)c(Cl)c3)c2cc1C(N)=O` [lenvatinib, reference compound], the cell viability entry in experiment [1] (setting [5]) is given as “significantly decreased”; in experiment [2] (setting [6]), “no remarkably influenced”. Also, the tumor size result in experiment [3] (setting [7]) is recorded as “decreased significantly tumor size”. In addition, the tumor shrinkage entry in experiment [4] (monotherapy) is on record as “did not induce significant tumor shrinkage”.
Turning to `Cc1cc(C=Nc2ccc(Cl)cc2)c2cccc(C)c2n1` [CKP1], the cell viability result in experiment [1] (setting [8]) is on record as “did not critical influence”; in experiment [1] (setting [9]), “significantly decreased”; in experiment [2] (setting [8]), “did not critical influence”; in experiment [2] (setting [10]), “remarkably restrained the viability”. The tumor size entry in experiment [3] (setting [11]) is “decreased significantly tumor size”. In addition, the tumor shrinkage result in experiment [4] (setting [12]) is on record as “substantial tumor shrinkage”. Besides, in experiment [4], the “tumor shrinkage (summary statement)” value is listed as “significant tumor shrinkage”.
Turning to `C/C=C(/C)C(=O)O[C@H]1C(C)=C2[C@H]([C@@H]1OC(=O)CCCCCCC)[C@@](C)(OC(C)=O)C[C@H](OC(=O)CCC)[C@@]1(O)[C@H]2OC(=O)[C@@]1(C)O` [thapsigargin, reference compound], the values for the cell viability entry in experiment [1] (setting [8]), in experiment [2] (setting [8]) and in experiment [2] (setting [10]) were “did not critical influence”, “did not critical influence” and “remarkably restrained the viability”, respectively. Moreover, in experiment [3] (setting [11]), the tumor size entry is “decreased significantly tumor size”. For the same compound, the tumor shrinkage entry in experiment [4] (setting [12]) was “substantial tumor shrinkage”.
As for `CNC(=O)c1cc(Oc2ccc(NC(=O)Nc3ccc(Cl)c(C(F)(F)F)c3)cc2)ccn1` [sorafenib, reference compound], the cell viability result in experiment [1] (setting [5]) is “significantly decreased”; in experiment [2] (setting [6]), “no remarkably influenced”. The tumor size entry in experiment [3] (setting [7]) is listed as “decreased significantly tumor size”. Besides, the tumor shrinkage entry in experiment [4] (monotherapy) is reported as “did not induce significant tumor shrinkage”.
With `Cc1cc(N=Cc2ccc(Cl)cc2)c2cccc(C)c2n1` [CKP2], the cell viability result in experiment [1] (setting [8]) is “did not critical influence”; in experiment [1] (setting [9]), “significantly decreased”; in experiment [2] (setting [8]) it was “did not critical influence”; in experiment [2] (setting [10]), “remarkably restrained the viability”. The tumor size entry in experiment [3] (setting [11]) is “decreased significantly tumor size”. For the same compound, in experiment [4] (setting [12]), the tumor shrinkage entry was “substantial tumor shrinkage”. For the same compound, in experiment [4], the “tumor shrinkage (summary statement)” value is on record as “significant tumor shrinkage”.
